Data on 9 molecules can be found in US9399646B2 (Genentech, Inc., priority 2010, dated 2016).

Experiment [1] relates to MCF-7 cells. As to the kind of experiment: Breast cancer cell viability assay (CellTiter-Glo, 5 days). Format: cell-based. Conditions: 5 days' compound exposure; for IC50: Homo sapiens, MCF7, 120 h. The procedure, abridged: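 Eleven-point semilog compound series, final 0.3-0.000003 μM, added to overnight-adhered MCF-7 cells (320/well; RPMI, 10% FBS, 20 mM HEPES) for 5 days. Viability read by CellTiter-Glo luminescence, background from medium without cells subtracted, expressed relative to untreated cells.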
For orientation: Cellular ATP, detected with luciferase, serves as a proxy for viable cell number.

For experiment [2], the target named is T1, ER-α in MCF-7 cells (Homo sapiens, UniProt P03372).
T1 sequence (P03372 1-595): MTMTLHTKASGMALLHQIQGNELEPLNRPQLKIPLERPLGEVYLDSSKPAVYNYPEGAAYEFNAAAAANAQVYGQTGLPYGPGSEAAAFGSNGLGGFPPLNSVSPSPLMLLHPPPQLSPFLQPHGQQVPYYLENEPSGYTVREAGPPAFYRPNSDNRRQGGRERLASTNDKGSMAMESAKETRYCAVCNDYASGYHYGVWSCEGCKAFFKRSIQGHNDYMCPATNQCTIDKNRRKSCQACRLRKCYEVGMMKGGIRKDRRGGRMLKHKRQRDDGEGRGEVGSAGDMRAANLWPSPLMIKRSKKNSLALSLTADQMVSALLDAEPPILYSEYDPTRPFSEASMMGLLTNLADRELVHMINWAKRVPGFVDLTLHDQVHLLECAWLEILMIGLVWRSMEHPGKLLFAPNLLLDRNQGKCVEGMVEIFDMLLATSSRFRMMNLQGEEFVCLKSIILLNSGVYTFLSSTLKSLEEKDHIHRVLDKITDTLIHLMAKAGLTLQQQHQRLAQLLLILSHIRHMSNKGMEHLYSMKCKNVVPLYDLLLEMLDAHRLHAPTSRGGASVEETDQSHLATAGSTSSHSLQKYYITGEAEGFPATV
As to the kind of experiment: Breast cancer cell ER-α in cell western assay (SP1). In kind it is cell-based. The arrangement: endogenous in cells; host or cells: MCF-7. Conditions: 4 or 24 hr post compound addition; for Emax: MCF7, SP1 antibody, read-out: ER-α In Cell Western Assay (SP1) Max Response; for DC50: SP1 antibody, read-out: ER-α In Cell Western Assay (SP1) IC50. The method, boiled down:
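Percent remaining ER: SP1 immunofluorescence normalized to DRAQ5 nuclear stain, compared with untreated controls. Treatment lasted 4 or 24 hr across 0.3–0.000003 μM final in MCF-7.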

Structures are written as SMILES.

Take `CC/C(=C(/c1ccc(/C=C/C(=O)O)cc1)c1ccc2[nH]ncc2c1)c1ccc(OCCCCC(=O)O)cc1` [Compound 354, 5-(4-((E)-1-(4-((E)-2-Carboxyvinyl)phenyl)-1-(1H-indazol-5-yl)but-1-en-2-yl)phenoxy)pentanoic acid]: in experiment [1], the “MCF7 Viability Assay Max Response” value is on record as “+ (+ = a single % value < 40%)” and the IC50 is greater than 100 nM. Moreover, in experiment [2], the Emax is no less than 40% and the DC50 is greater than 100 nM.

`CC/C(=C(/c1ccc(/C=C/C(=O)O)cc1)c1ccc2[nH]ncc2c1)c1cnccn1` [Compound 219, (E)-3-(4-((E)-1-(1H-Indazol-5-yl)-2-(pyrazin-2-yl)but-1-en-1-yl)phenyl)acrylic acid]: in experiment [1], the “MCF7 Viability Assay Max Response” value is listed as “++ (++ = a single % value ≧ 40%)” and the IC50 is greater than 100 nM. Further, in experiment [2], the Emax is no less than 40% and the DC50 is greater than 100 nM.

Consider `CC/C(=C(/c1ccc(/C=C/C(=O)O)cc1)c1ccc2[nH]ncc2c1)c1ccsc1C` [Compound 214, (E)-3-(4-((E)-1-(1H-Indazol-5-yl)-2-(2-methylthiophen-3-yl)but-1-en-1-yl)phenyl)acrylic acid], for which, in experiment [1], the “MCF7 Viability Assay Max Response” value is recorded as “++ (++ = a single % value ≧ 40%)” and the IC50 was no more than 100 nM. Moreover, in experiment [2], the Emax is no less than 40% and the DC50 is no more than 100 nM.

Turning to `CC/C(=C(/c1ccc(/C=C/C(=O)NC(C)C)cc1)c1ccc2[nH]ncc2c1)c1ccccc1` [Compound 419, (E)-3-(4-((E)-1-(1H-Indazol-5-yl)-2-phenylbut-1-en-1-yl)phenyl)-N-isopropylacrylamide], in experiment [1], the “MCF7 Viability Assay Max Response” value was “++ (++ = a single % value ≧ 40%)” and the IC50 was no more than 100 nM. In experiment [2], the Emax is no less than 40% and the DC50 is no more than 100 nM.

Turning to `CC/C(=C(/c1ccc(/C=C/C(=O)O)cc1)c1cnc2[nH]ccc2n1)c1ccccc1` [Compound 246, (E)-3-(4-((E)-2-Phenyl-1-(5H-pyrrolo[2,3-b]pyrazin-2-yl)but-1-en-1-yl)phenyl)acrylic acid], in experiment [1], the “MCF7 Viability Assay Max Response” value is “+ (+ = a single % value < 40%)” and the IC50 is greater than 100 nM. In addition, in experiment [2], the Emax was no less than 40% and the DC50 was greater than 100 nM.

Turning to `CC/C(=C(/c1ccc(/C=C/C(=O)O)cc1)c1ccc2[nH]ncc2c1)c1cccnc1C` [Compound 217, (E)-3-(4-((E)-1-(1H-Indazol-5-yl)-2-(2-methylpyridin-3-yl)but-1-en-1-yl)phenyl)acrylic acid], in experiment [1], the “MCF7 Viability Assay Max Response” value is listed as “++ (++ = a single % value ≧ 40%)” and the IC50 was greater than 100 nM. Further, the Emax in experiment [2] is no less than 40%.

Regarding `CC/C(=C(/c1ccc(/C=C/C(=O)O)cc1)c1ccc2scnc2c1)c1ccc(F)cc1` [Compound 281, (E)-3-(4-((E)-1-(Benzo[d]thiazol-5-yl)-2-(4-fluorophenyl)but-1-en-1-yl)phenyl)acrylic acid], in experiment [1], the “MCF7 Viability Assay Max Response” value was “++ (++ = a single % value ≧ 40%)” and the IC50 is greater than 100 nM. In experiment [2], the Emax is no less than 40% and the DC50 is no more than 100 nM.

On to `CC/C(=C(/c1ccc(/C=C/C(=O)O)cc1)c1ccc2[nH]ncc2c1)c1cccc(Oc2ccccn2)c1` [Compound 362, (E)-3-(4-((E)-1-(1H-Indazol-5-yl)-2-(3-(pyridin-2-yloxy)phenyl)but-1-en-1-yl)phenyl)acrylic acid], for which, in experiment [1], the “MCF7 Viability Assay Max Response” value was “++ (++ = a single % value ≧ 40%)” and the IC50 was no more than 100 nM. In addition, in experiment [2], the Emax was no less than 40% and the DC50 was no more than 100 nM.

On to `CC/C(=C(/c1ccc(/C=C/C(=O)O)cc1)c1ccc2c(c1)CNC2=O)c1ccccc1` [Compound 110, (E)-3-(4-((E)-1-(1-Oxoisoindolin-5-yl)-2-phenylbut-1-en-1-yl)phenyl)acrylic acid], for which, in experiment [1], the “MCF7 Viability Assay Max Response” value is “++ (++ = a single % value ≧ 40%)” and the IC50 was no more than 100 nM. For the same molecule, in experiment [2], the Emax was no less than 40% and the DC50 was no more than 100 nM.

The term IC50 denotes the concentration that inhibits the measured activity by half.
